Values quoted from earlier work, collected in patent US8030432B2, “Copolymerization of hydroxytyrosol with flavonoids mediated by horseradish peroxidases” (The United States of America as represented by the …, priority 2009, dated 2011).

Experiments:
[1] = addition of 300 mg/Kg; red meat and poultry

Substance | decomposition at room temperature | inhibition of oxidation [1]
epigallocatechin-3-gallate [EGCG] | decompose at room temperature after a few minutes | –
catechin | – | showed inhibition of oxidation
